# Assays:
# Type in all cases: functional
# [1] = test system: Pseudomonas fluorescens; assay: Antibacterial activity against Pseudomonas fluorescens MTCC 2421 at 1500 ug/ml after 18 hr by cup-plate method; conditions: MTCC 2421, 18 h, read-out: DIZ
# [2] = test system: Aspergillus niger; assay: Antifungal activity against Aspergillus niger MTCC 2546 at 500 ug/ml after 18 hr by cup-plate method; conditions: MTCC 2546, 18 h, read-out: DIZ
# [3] = test system: Bacillus pumilus; assay: Antibacterial activity against Bacillus pumilus MTCC 1456 after 24 hr by broth dilution method; conditions: MTCC 1456, 24 h
# [4] = test system: Bacillus subtilis; assay: Antibacterial activity against Bacillus subtilis MTCC 441 at 500 ug/ml after 18 hr by cup plate method; conditions: MTCC 441, 18 h, read-out: DIZ
# [5] = test system: Penicillium chrysogenum; assay: Antifungal activity against Penicillium chrysogenum MTCC 161 at 200 ug/ml after 18 hr by cup-plate method; conditions: MTCC 161, 18 h, read-out: DIZ
# [6] = test system: Escherichia coli; assay: Antibacterial activity against Escherichia coli MTCC 1573 at 1500 ug/ml after 18 hr by cup-plate method; conditions: MTCC 1573, 18 h, read-out: DIZ
# [7] = test system: Bacillus pumilus; assay: Antibacterial activity against Bacillus pumilus MTCC 1456 at 100 ug/ml after 18 hr by cup-plate method; conditions: MTCC 1456, 18 h, read-out: DIZ
# [8] = test system: Bacillus subtilis; assay: Antibacterial activity against Bacillus subtilis MTCC 441 at 1500 ug/ml after 18 hr by cup plate method; conditions: MTCC 441, 18 h, read-out: DIZ
# [9] = test system: Bacillus pumilus; assay: Antibacterial activity against Bacillus pumilus MTCC 1456 at 200 ug/ml after 18 hr by cup-plate method; conditions: MTCC 1456, 18 h, read-out: DIZ
# [10] = test system: Aspergillus niger; assay: Antifungal activity against Aspergillus niger MTCC 2546 at 1000 ug/ml after 18 hr by cup-plate method; conditions: MTCC 2546, 18 h, read-out: DIZ
# [11] = test system: Micrococcus luteus; assay: Antibacterial activity against Micrococcus luteus MTCC 1538 at 1000 ug/ml after 18 hr by cup-plate method; conditions: MTCC 1538, 18 h, read-out: DIZ
# [12] = test system: Pseudomonas aeruginosa; assay: Antibacterial activity against Pseudomonas aeruginosa MTCC 424 at 200 ug/ml after 18 hr by cup-plate method; conditions: MTCC 424, 18 h, read-out: DIZ
# [13] = test system: Escherichia coli; assay: Antibacterial activity against Escherichia coli MTCC 1573 at 100 ug/ml after 18 hr by cup-plate method; conditions: MTCC 1573, 18 h, read-out: DIZ
# [14] = test system: Micrococcus luteus; assay: Antibacterial activity against Micrococcus luteus MTCC 1538 at 1500 ug/ml after 18 hr by cup-plate method; conditions: MTCC 1538, 18 h, read-out: DIZ
# [15] = test system: Pseudomonas aeruginosa; assay: Antibacterial activity against Pseudomonas aeruginosa MTCC 424 at 1500 ug/ml after 18 hr by cup-plate method; conditions: MTCC 424, 18 h, read-out: DIZ
# [16] = test system: Bacillus subtilis; assay: Antibacterial activity against Bacillus subtilis MTCC 441 after 24 hr by broth dilution method; conditions: MTCC 441, 24 h
# [17] = test system: Pseudomonas fluorescens; assay: Antibacterial activity against Pseudomonas fluorescens MTCC 2421 at 100 ug/ml after 18 hr by cup-plate method; conditions: MTCC 2421, 18 h, read-out: DIZ
# [18] = test system: Escherichia coli; assay: Antibacterial activity against Escherichia coli MTCC 1573 at 200 ug/ml after 18 hr by cup-plate method; conditions: MTCC 1573, 18 h, read-out: DIZ
# [19] = test system: Micrococcus luteus; assay: Antibacterial activity against Micrococcus luteus MTCC 1538 at 500 ug/ml after 18 hr by cup-plate method; conditions: MTCC 1538, 18 h, read-out: DIZ
# [20] = test system: Penicillium chrysogenum; assay: Antifungal activity against Penicillium chrysogenum MTCC 161 at 1000 ug/ml after 18 hr by cup-plate method; conditions: MTCC 161, 18 h, read-out: DIZ
# [21] = test system: Aspergillus niger; assay: Antifungal activity against Aspergillus niger MTCC 2546 after 24 hr by broth dilution method; conditions: MTCC 2546, 24 h
# [22] = test system: Escherichia coli; assay: Antibacterial activity against Escherichia coli MTCC 1573 at 500 ug/ml after 18 hr by cup-plate method; conditions: MTCC 1573, 18 h, read-out: DIZ
# [23] = test system: Pseudomonas aeruginosa; assay: Antibacterial activity against Pseudomonas aeruginosa MTCC 424 at 100 ug/ml after 18 hr by cup-plate method; conditions: MTCC 424, 18 h, read-out: DIZ
# [24] = test system: Bacillus subtilis; assay: Antibacterial activity against Bacillus subtilis MTCC 441 at 200 ug/ml after 18 hr by cup plate method; conditions: MTCC 441, 18 h, read-out: DIZ
# [25] = test system: Penicillium chrysogenum; assay: Antifungal activity against Penicillium chrysogenum MTCC 161 at 1500 ug/ml after 18 hr by cup-plate method; conditions: MTCC 161, 18 h, read-out: DIZ
# [26] = test system: Micrococcus luteus; assay: Antibacterial activity against Micrococcus luteus MTCC 1538 after 24 hr by broth dilution method; conditions: MTCC 1538, 24 h
# [27] = test system: Escherichia coli; assay: Antibacterial activity against Escherichia coli MTCC 1573 at 1000 ug/ml after 18 hr by cup-plate method; conditions: MTCC 1573, 18 h, read-out: DIZ
# [28] = test system: Pseudomonas fluorescens; assay: Antibacterial activity against Pseudomonas fluorescens MTCC 2421 at 500 ug/ml after 18 hr by cup-plate method; conditions: MTCC 2421, 18 h, read-out: DIZ
# [29] = test system: Penicillium chrysogenum; assay: Antifungal activity against Penicillium chrysogenum MTCC 161 at 100 ug/ml after 18 hr by cup-plate method; conditions: MTCC 161, 18 h, read-out: DIZ
# [30] = test system: Pseudomonas fluorescens; assay: Antibacterial activity against Pseudomonas fluorescens MTCC 2421 at 1000 ug/ml after 18 hr by cup-plate method; conditions: MTCC 2421, 18 h, read-out: DIZ
# [31] = test system: Staphylococcus aureus; assay: Antibacterial activity against Staphylococcus aureus MTCC 1430 at 100 ug/ml after 18 hr by cup-plate method; conditions: MTCC 1430, 18 h, read-out: DIZ
# [32] = test system: Escherichia coli; assay: Antibacterial activity against Escherichia coli MTCC 1573 after 24 hr by broth dilution method; conditions: MTCC 1573, 24 h
# [33] = test system: Bacillus pumilus; assay: Antibacterial activity against Bacillus pumilus MTCC 1456 at 1500 ug/ml after 18 hr by cup-plate method; conditions: MTCC 1456, 18 h, read-out: DIZ
# [34] = test system: Aspergillus niger; assay: Antifungal activity against Aspergillus niger MTCC 2546 at 200 ug/ml after 18 hr by cup-plate method; conditions: MTCC 2546, 18 h, read-out: DIZ
# [35] = test system: Pseudomonas aeruginosa; assay: Antibacterial activity against Pseudomonas aeruginosa MTCC 424 at 1000 ug/ml after 18 hr by cup-plate method; conditions: MTCC 424, 18 h, read-out: DIZ
# [36] = test system: Staphylococcus aureus; assay: Antibacterial activity against Staphylococcus aureus MTCC 1430 at 1000 ug/ml after 18 hr by cup-plate method; conditions: MTCC 1430, 18 h, read-out: DIZ
# [37] = test system: Pseudomonas aeruginosa; assay: Antibacterial activity against Pseudomonas aeruginosa MTCC 424 after 24 hr by broth dilution method; conditions: MTCC 424, 24 h
# [38] = test system: Bacillus subtilis; assay: Antibacterial activity against Bacillus subtilis MTCC 441 at 1000 ug/ml after 18 hr by cup plate method; conditions: MTCC 441, 18 h, read-out: DIZ
# [39] = test system: Pseudomonas aeruginosa; assay: Antibacterial activity against Pseudomonas aeruginosa MTCC 424 at 500 ug/ml after 18 hr by cup-plate method; conditions: MTCC 424, 18 h, read-out: DIZ
# [40] = test system: Aspergillus niger; assay: Antifungal activity against Aspergillus niger MTCC 2546 at 1500 ug/ml after 18 hr by cup-plate method; conditions: MTCC 2546, 18 h, read-out: DIZ
# [41] = test system: Penicillium chrysogenum; assay: Antifungal activity against Penicillium chrysogenum MTCC 161 after 24 hr by broth dilution method; conditions: MTCC 161, 24 h
# [42] = test system: Pseudomonas fluorescens; assay: Antibacterial activity against Pseudomonas fluorescens MTCC 2421 at 200 ug/ml after 18 hr by cup-plate method; conditions: MTCC 2421, 18 h, read-out: DIZ
# [43] = test system: Staphylococcus aureus; assay: Antibacterial activity against Staphylococcus aureus MTCC 1430 after 24 hr by broth dilution method; conditions: MTCC 1430, 24 h
# [44] = test system: Staphylococcus aureus; assay: Antibacterial activity against Staphylococcus aureus MTCC 1430 at 200 ug/ml after 18 hr by cup-plate method; conditions: MTCC 1430, 18 h, read-out: DIZ
# [45] = test system: Staphylococcus aureus; assay: Antibacterial activity against Staphylococcus aureus MTCC 1430 at 1500 ug/ml after 18 hr by cup-plate method; conditions: MTCC 1430, 18 h, read-out: DIZ
# [46] = test system: Micrococcus luteus; assay: Antibacterial activity against Micrococcus luteus MTCC 1538 at 200 ug/ml after 18 hr by cup-plate method; conditions: MTCC 1538, 18 h, read-out: DIZ
# [47] = test system: Micrococcus luteus; assay: Antibacterial activity against Micrococcus luteus MTCC 1538 at 100 ug/ml after 18 hr by cup-plate method; conditions: MTCC 1538, 18 h, read-out: DIZ
# [48] = test system: Bacillus subtilis; assay: Antibacterial activity against Bacillus subtilis MTCC 441 at 100 ug/ml after 18 hr by cup plate method; conditions: MTCC 441, 18 h, read-out: DIZ
# [49] = test system: Aspergillus niger; assay: Antifungal activity against Aspergillus niger MTCC 2546 at 100 ug/ml after 18 hr by cup-plate method; conditions: MTCC 2546, 18 h, read-out: DIZ
# [50] = test system: Staphylococcus aureus; assay: Antibacterial activity against Staphylococcus aureus MTCC 1430 at 500 ug/ml after 18 hr by cup-plate method; conditions: MTCC 1430, 18 h, read-out: DIZ
# [51] = test system: Penicillium chrysogenum; assay: Antifungal activity against Penicillium chrysogenum MTCC 161 at 500 ug/ml after 18 hr by cup-plate method; conditions: MTCC 161, 18 h, read-out: DIZ
# [52] = test system: Bacillus pumilus; assay: Antibacterial activity against Bacillus pumilus MTCC 1456 at 1000 ug/ml after 18 hr by cup-plate method; conditions: MTCC 1456, 18 h, read-out: DIZ
# [53] = test system: Bacillus pumilus; assay: Antibacterial activity against Bacillus pumilus MTCC 1456 at 500 ug/ml after 18 hr by cup-plate method; conditions: MTCC 1456, 18 h, read-out: DIZ
# [54] = test system: Pseudomonas fluorescens; assay: Antibacterial activity against Pseudomonas fluorescens MTCC 2421 after 24 hr by broth dilution method; conditions: MTCC 2421, 24 h
structure (smiles),measurement,setting,value
Cc1cccnc1/N=C/c1cccc2ccccc12,zone of inhibition at 1500 µg/mL,[1],24 mm
same,zone of inhibition at 500 µg/mL,[2],19 mm
same,MIC,[3],200 µg/mL
same,zone of inhibition at 500 µg/mL,[4],16 mm
same,zone of inhibition at 200 µg/mL,[5],13 mm
same,zone of inhibition at 1500 µg/mL,[6],19 mm
same,zone of inhibition at 100 µg/mL,[7],13 mm
same,zone of inhibition at 1500 µg/mL,[8],19 mm
same,zone of inhibition at 200 µg/mL,[9],16 mm
same,zone of inhibition at 1000 µg/mL,[10],20 mm
same,zone of inhibition at 1000 µg/mL,[11],24 mm
same,zone of inhibition at 200 µg/mL,[12],13 mm
same,zone of inhibition at 100 µg/mL,[13],13 mm
same,zone of inhibition at 1500 µg/mL,[14],26 mm
same,zone of inhibition at 1500 µg/mL,[15],18 mm
same,MIC,[16],50 µg/mL
same,zone of inhibition at 100 µg/mL,[17],17 mm
same,zone of inhibition at 200 µg/mL,[18],14 mm
same,zone of inhibition at 500 µg/mL,[19],22 mm
same,zone of inhibition at 1000 µg/mL,[20],17 mm
same,MIC,[21],200 µg/mL
same,zone of inhibition at 500 µg/mL,[22],15 mm
same,zone of inhibition at 100 µg/mL,[23],12 mm
same,zone of inhibition at 200 µg/mL,[24],13 mm
same,zone of inhibition at 1500 µg/mL,[25],18 mm
same,MIC,[26],200 µg/mL
same,zone of inhibition at 1000 µg/mL,[27],16 mm
same,zone of inhibition at 500 µg/mL,[28],22 mm
same,zone of inhibition at 100 µg/mL,[29],11 mm
same,zone of inhibition at 1000 µg/mL,[30],23 mm
same,zone of inhibition at 100 µg/mL,[31],10 mm
same,MIC,[32],200 µg/mL
same,zone of inhibition at 1500 µg/mL,[33],20 mm
same,zone of inhibition at 200 µg/mL,[34],16 mm
same,zone of inhibition at 1000 µg/mL,[35],16 mm
same,zone of inhibition at 1000 µg/mL,[36],18 mm
same,MIC,[37],300 µg/mL
same,zone of inhibition at 1000 µg/mL,[38],18 mm
same,zone of inhibition at 500 µg/mL,[39],14 mm
same,zone of inhibition at 1500 µg/mL,[40],21 mm
same,MIC,[41],400 µg/mL
same,zone of inhibition at 200 µg/mL,[42],20 mm
same,MIC,[43],400 µg/mL
same,zone of inhibition at 200 µg/mL,[44],13 mm
same,zone of inhibition at 1500 µg/mL,[45],20 mm
same,zone of inhibition at 200 µg/mL,[46],18 mm
same,zone of inhibition at 100 µg/mL,[47],16 mm
same,zone of inhibition at 100 µg/mL,[48],12 mm
same,zone of inhibition at 100 µg/mL,[49],13 mm
same,zone of inhibition at 500 µg/mL,[50],15 mm
same,zone of inhibition at 500 µg/mL,[51],15 mm
same,zone of inhibition at 1000 µg/mL,[52],19 mm
same,zone of inhibition at 500 µg/mL,[53],18 mm
same,MIC,[54],300 µg/mL
